Measured values as given in ChEMBL document CHEMBL4184219, “Binding-Site Compatible Fragment Growing Applied to the Design of β2-Adrenergic Receptor Ligands” (J Med Chem, 2018).

Experiments:
[1] = target: T1, Beta-2 adrenergic receptor (Homo sapiens, UniProt P07550); test: Displacement of [3H]-DHA from Nb80-fused beta2 adrenergic receptor (unknown origin) expressed in Sf9 cell membranes after 2 hrs by microbeta scintillation counting method
[2] = target: T1, Beta-2 adrenergic receptor; test: Displacement of [3H]-DHA from Nb69-fused beta2 adrenergic receptor (unknown origin) expressed in Sf9 cell membranes after 2 hrs by microbeta scintillation counting method
[3] = target: T1, Beta-2 adrenergic receptor; test: Ratio of Ki for Nb69-fused beta2 adrenergic receptor (unknown origin) to Ki for Nb80-fused beta2 adrenergic receptor (unknown origin)

T1 sequence (P07550 whole entry, looked up, the tested form may be a part): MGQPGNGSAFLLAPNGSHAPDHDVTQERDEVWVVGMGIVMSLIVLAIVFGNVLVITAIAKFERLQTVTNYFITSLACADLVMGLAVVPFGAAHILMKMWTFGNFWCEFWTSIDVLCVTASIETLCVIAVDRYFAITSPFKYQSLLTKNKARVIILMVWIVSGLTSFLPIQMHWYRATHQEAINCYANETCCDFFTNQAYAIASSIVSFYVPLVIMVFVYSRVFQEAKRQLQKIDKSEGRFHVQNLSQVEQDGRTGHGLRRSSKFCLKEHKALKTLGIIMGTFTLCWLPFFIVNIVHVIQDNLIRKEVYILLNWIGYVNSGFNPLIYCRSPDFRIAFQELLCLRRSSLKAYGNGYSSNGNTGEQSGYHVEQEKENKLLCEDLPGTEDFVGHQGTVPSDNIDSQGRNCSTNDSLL

Compound | Ki [1] [µM] | Ki [2] [µM] | Ratio Ki [3]
COc1ccc2c(c1)c(CCNCCCc1ccc(Cl)cc1)cn2C | 0.52 | 3.9 | 7.5
COc1ccc2c(c1)c(CCNCc1cc(OC(F)(F)F)ccc1F)cn2C | 80.4 | 83.8 | 1
Cc1ccccc1C(C)NCc1ccc(-c2ncccn2)cc1 (centres undefined) | 4.39 | 268 | 61
C[C@H](CC(F)(F)F)NCc1ccc(-c2nccs2)cc1 | 52.3 | 393 | 7.5
CC(NC1CC(c2ccc(F)cc2)C1)c1ccc(Cl)cc1 (centres undefined) | 7.89 | 74 | 9.4
COc1ccc2c(c1)c(CCN)cn2C | 20.4 | 36.2 | 1.8
NCc1ccc(-c2ncccn2)cc1 | 78.1 | > 1000 | > 91
CC(N)c1ccc(Cl)cc1 (centres undefined) | 33.8 | > 1000 | > 61
CC1(NCc2cc3ccccc3s2)COC1 | > 1000 | > 1000 | > 10
CNCc1cc2ccccc2s1 | 43.2 | 373 | 8.6
CNCc1ccc(-c2nccs2)cc1 | 33.5 | 365 | 11
OCC(NCc1ccc(-c2nccs2)cc1)c1ccco1 (centres undefined) | 95.4 | > 1000 | > 51
COc1ccc2c(c1)c(CCNCCCc1cccc(C(F)(F)F)c1)cn2C | 10.4 | 25 | 2.4
